Measurements taken from patent US10104891B2 (priority 2014, dated 2018).

Assays:
Assay type in all cases: in vivo
Phytophthora infestans = test: whole plant or invertebrate; details: Phytophthora infestans, in Solanum lycopersicum, 96 h, read-out: control value (Test 1)
[1] = tested on: Pseudoperonospora cubensis; test: Test 2: control effect against cucumber downy mildew; details: Pseudoperonospora cubensis, 120 h, control value vs untreated section
Procedure, shortened: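 Cucumber (Sagami hanjiro) at 2-leaf stage sprayed with 4 ppm compound from 10% wettable powder in Tween20 (1/5000); inoculated next day with P. cubensis zoospores, 1.0×10^4 units/ml, 16 hr moist chamber at 22° C. Lesion area rate scored 5 days post-inoculation; control value = (1 − treated/untreated onset area rate)×100.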

Plasmopara viticola = test: Test 3: control effect against grape downy mildew; details: Plasmopara viticola, 120 h, control value vs untreated section
Procedure, shortened: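 Neomuscat grape seedlings were sprayed with compound at 4 ppm, diluted from a 10% wettable powder in Tween20 solution. One day later they were inoculated with Plasmopara viticola zoospores at 1.0×10^4 units/ml and held moist at 22° C. for 16 hr. Control value was derived from leaf lesion area at 5 days versus untreated leaves.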

Pythium graminicola = test: Test 4: control effect against rice damping-off by the Pythium fungus (soil lavage); details: 1,000 ppm, 2.5 ml test suspension drenched on contaminated soil, rice (koshihikari)
Procedure, shortened: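 Compound at 1,000 ppm in 1/5000 Tween20 was drenched (2.5 ml) onto Koshihikari rice seeds, 3 pre-sprouted seeds per cell, sown in soil infested with Pythium graminicola (5 g/kg). Regime: 28 °C for 72 h, 5 °C for 2 days, then 25 °C for 14 days. Dead and stunted seedlings were scored into an onset rate, and control value = (1 − treated/untreated) × 100.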

Compound	pest or weed control at 4 µg/mL (Phytophthora infestans)	pest or weed control at 4 µg/mL [1]	pest or weed control at 4 µg/mL (Plasmopara viticola)	pest or weed control at 1000 ppm (Pythium graminicola)
COc1cccc2c1COC(c1csc(C3CCN(C(=O)Cn4nc(C(F)(F)F)cc4C(F)(F)F)CC3)n1)OC2 (stereo not drawn) [Compound 1-140, 4-[4-(6-methoxy-1,5-dihydro-3H-2,4-benzodioxepin-3-yl)-2-thiazolyl]-1-[2-[3,5-bis(trifluoromethyl)-1H-pyrazole-1-yl]acetyl]piperidine]	100%	100%	100%	≥ 90%
CC(=O)Oc1cccc2c1COC(c1csc(C3CCN(C(=O)Cn4nc(C(F)(F)F)cc4C)CC3)n1)OC2 (stereo not drawn) [Compound 1-144, 4-[4-(6-acetoxy-1,5-dihydro-3H-2,4-benzodioxepin-3-yl)-2-thiazolyl]-1-[2-[5-methyl-3-(trifluoromethyl)-1H-pyrazole-1-yl]acetyl]piperidine]	100%	100%	100%	≥ 90%
CS(=O)(=O)Oc1ccc(F)c2c1COC(c1csc(C3CCN(C(=S)Cn4nc(C(F)F)cc4C(F)F)CC3)n1)OC2 (stereo not drawn) [Compound 1-158, 4-[4-(6-fluoro-9-methylsulfonyloxy-1,5-dihydro-3H-2,4-benzodioxepin-3-yl)-2-thiazolyl]-1-[2-[3,5-bis(difluoromethyl)-1H-pyrazole-1-yl]thioacetyl]piperidine]	100%	100%	100%	≥ 90%
Cc1ccc(C)c(CC(=O)N2CCC(c3nc(C4OCc5cccc(OS(C)(=O)=O)c5CO4)cs3)CC2)c1 (stereo not drawn) [Compound 2-1, 4-[4-(6-methylsulfonyloxy-1,5-dihydro-3H-2,4-benzodioxepin-3-yl)-2-thiazolyl]-1-[2-(2,5-dimethylphenyl)acetyl]piperidine]	100%	100%	100%	≥ 90%
CS(=O)(=O)Oc1cccc2c1COC(c1csc(C3CCN(C(=O)Cc4cc(Cl)ccc4Cl)CC3)n1)OC2 (stereo not drawn) [Compound 2-2, 4-[4-(6-methylsulfonyloxy-1,5-dihydro-3H-2,4-benzodioxepin-3-yl)-2-thiazolyl]-1-[2-(2,5-dichlorophenyl)acetyl]piperidine]	100%	100%	100%	≥ 90%
O=C(Cc1cc(Cl)ccc1Cl)N1CCC(c2nc(C3OCc4c(F)ccc(F)c4CO3)cs2)CC1 [Compound 2-4, 4-[4-(6,9-difluoro-1,5-dihydro-3H-2,4-benzodioxepin-3-yl)-2-thiazolyl]-1-[2-(2,5-dichlorophenyl)acetyl]piperidine]	100%	100%	100%	≥ 90%
Cc1ccc(C)c(NC(=O)N2CCC(c3nc(C4OCc5cccc(OS(C)(=O)=O)c5CO4)cs3)CC2)c1 (stereo not drawn) [Compound 2-5, 4-[4-(6-methylsulfonyloxy-1,5-dihydro-3H-2,4-benzodioxepin-3-yl)-2-thiazolyl]-1-[N-(2,5-dimethylphenyl)carbamoyl]piperidine]	100%	100%	100%	≥ 90%
Cc1ccc(C)c(CC(=O)N2CCC(c3nc(C4OCc5cccc(F)c5CO4)cs3)CC2)c1 (stereo not drawn) [Compound 2-7, 4-[4-(6-fluoro-1,5-dihydro-3H-2,4-benzodioxepin-3-yl)-2-thiazolyl]-1-[2-(2,5-dimethylphenyl)acetyl]piperidine]	100%	100%	100%	≥ 90%
Cc1ccc(C)c(CC(=O)N2CCC(c3nc(C4OCc5ccc(F)cc5CO4)cs3)CC2)c1 (stereo not drawn) [Compound 2-10, 4-[4-(7-fluoro-1,5-dihydro-3H-2,4-benzodioxepin-3-yl)-2-thiazolyl]-1-[2-(2,5-dimethylphenyl)acetyl]piperidine]	80%	100%	100%	≥ 90%
